# From the CATMoS acute toxicity set (Mansouri et al. 2021)
# Assay: GHS categories as the set defines them, by LD50: 1 up to 5, 2 up to 50, 3 up to 300, 4 up to 2000, 5 above 2000 mg/kg
# Settings: rat; in vivo; po
compound,measurement,value
O=C1CC(Nc2ccc([N+](=O)[O-])cc2)=NN1c1c(Cl)cc(Cl)cc1Cl,GHS category,5
COC(=O)c1sc(N)c(C#N)c1C,GHS category,5
CCOC(=O)C(=O)Nc1cc(OC)nc(OC)n1,GHS category,4
Oc1ccc(OCc2ccccc2)cc1,GHS category,5
COc1ccc(Cl)cc1N/C(=N/C1CCCCC1)c1ccccc1C,GHS category,4
C=C[Si]1(C)O[Si](C)(C=C)O[Si](C)(C=C)O[Si](C)(C=C)O1 (configuration not stated),GHS category,5
COc1ccc(C[C@](C)(NC(N)=O)C(=O)O)cc1OC,GHS category,5
CCCC(C)c1ccc(OCC(=O)Cl)c(C(C)CCC)c1 (configuration not stated),GHS category,5
Cc1cccc(OC(=O)c2ccc(Cl)cc2OC(N)=O)c1,GHS category,5
CCSc1nc(N)c2c(C)coc2n1,GHS category,5
O=S(=O)(CCO)CS(=O)(=O)CCO,GHS category,5
CCC1(C)Oc2cccc(OC(=O)N(C)C(C)=O)c2O1 (configuration not stated),GHS category,3
CO[Si](C)(C)CCl,GHS category,4
CCCc1nc2ccnn2c(CCC)c1Cc1ccc(-c2ccccc2-c2nn[nH]n2)cc1,GHS category,4
CCn1ccc(=O)n2nc(-c3cccs3)cc12,GHS category,4
Nc1cc(S(=O)(=O)O)c2cc(S(=O)(=O)O)cc(S(=O)(=O)O)c2c1,GHS category,5
CC(=O)CCC=C(C)CC/C=C(\C)CC/C=C(\C)CCC=C(C)C,GHS category,5
CCCCC1=NC2(CCCC2)C(=O)N1Cc1ccc(-c2ccccc2C#N)cc1,GHS category,5
CC(CC(C)(C)C)CC(C)(C)C,GHS category,5
CNc1cc(OC)c(C(=O)N[C@H]2CCN(Cc3ccccc3)[C@H]2C)cc1Cl,GHS category,4
CCCC(=O)Nc1ccc(Cc2ccccn2)c([N+](=O)[O-])c1,GHS category,4
C=CCSc1nc(N)c2c(C)coc2n1,GHS category,5
CC#CCC(C)[C@H](O)/C=C/C1[C@H](O)C[C@@H]2C/C(=C\CCCC(=O)O)C[C@H]12 (some centres not stated),GHS category,3
Cc1cccc(N(C)C(=S)Oc2ccc3ccccc3c2)c1,GHS category,5
CC1Oc2cc(C(=O)c3ccc(Cl)cc3)ccc2NC1=O (configuration not stated),GHS category,5
CCN(Cc1cccc(S(=O)(=O)O)c1)c1ccc(C(=C2C=CC(=[N+](CC)Cc3cccc(S(=O)(=O)[O-])c3)C=C2)c2ccccc2)cc1,GHS category,5
CCCCCCCCCCCCCC,GHS category,5
CC(C)=CCC(O)C1=CC(=O)c2c(O)ccc(O)c2C1=O (configuration not stated),GHS category,4
CCCCCCCC1CCCC(=O)O1 (configuration not stated),GHS category,5
Cc1cccc2ncc(C(=O)NC(C)(C)C)c(=O)n12,GHS category,3
Cn1cc(C(=O)O)c(C(F)F)n1,GHS category,5
O=C(O)C1(O)c2ccccc2-c2ccc(Cl)cc21 (configuration not stated),GHS category,5
Nc1cc(Cl)c(Cl)cc1Cl,GHS category,5
CCCCCCCCOc1ccccc1C(=O)Nc1ccc(C(=O)OCC[N+](C)(CC)CC)cc1,GHS category,4
CC(C)OC(=O)[C@@H](C)N(C(=O)c1ccccc1)c1ccc(F)c(Cl)c1,GHS category,5
CCOc1cc(N)c(Cl)cc1C(=O)NCC1CN(Cc2ccc(F)cc2)CCO1 (configuration not stated),GHS category,5
COc1cc(C=CC(=O)CC(=O)C=Cc2ccc(O)c(OC)c2)ccc1O,GHS category,5
CCC1(CC)COC(Cn2cncn2)(c2cc3ccccc3o2)OC1,GHS category,4
Cc1cc(Cl)ccc1OC(C)C(=O)Nc1ccccc1 (configuration not stated),GHS category,5
O=C(Nc1ccccc1C(=O)O)C(=Cc1ccccc1)C(=O)Nc1ccccc1C(=O)O,GHS category,5
C[C@@H]1C[C@@H](C)CC(C)(C)C1,GHS category,5
O=CC(O)C(O)C(O)C(O)COC1OC(CO)C(O)C(O)C1O (configuration not stated),GHS category,4
O=C(OCc1cncs1)Oc1ccc([N+](=O)[O-])cc1,GHS category,5
CCOC(=O)[C@H](CCc1ccccc1)N[C@H]1CCCN2CCC[C@@H](C(=O)O)N2C1=O,GHS category,5
CC1=NN(c2cccc(S(=O)(=O)O)c2)C(=O)C1,GHS category,5
COCCCCC(=O)c1ccc(C(F)(F)F)cc1,GHS category,5
Brc1nc[nH]c1Br,GHS category,4
C[C@H]1O[C@]2(CS1)CN1CCC2CC1,GHS category,3
CC(C)OC(=O)C(C)(C)Oc1ccc(C(=O)c2ccc(Cl)cc2)cc1,GHS category,5
CCOC(=O)C1=C(C)NC(CCl)=C(C(=O)OCC)C1c1cccc([N+](=O)[O-])c1 (configuration not stated),GHS category,4
CCOC[C@@H]1[C@@H](O)[C@H](O[C@H]2[C@H](O)[C@@H](OCC)[C@H](O)O[C@@H]2CO)O[C@H](COCC)[C@H]1O,GHS category,5
C=C(C)C(=O)OCCc1ccccc1,GHS category,5
CCCCCCCCCCCCCCCC(=O)OCC(CC)CCCC (configuration not stated),GHS category,5
CCC(COC(=O)c1ccccc1C(=O)OCC(CC)CC(C)C)CC(C)C (configuration not stated),GHS category,5
O=S(=O)(O)c1cccc(N=Nc2ccc(N=Nc3ccc(Nc4ccccc4)c4c(S(=O)(=O)O)cccc34)c3ccccc23)c1,GHS category,5
CNc1cccc(NC(=O)C(=O)O)c1C#N,GHS category,5
CCOCC(O)COc1ccc(NC(=O)CC[S+](C)C)cc1 (configuration not stated),GHS category,5
O=C(Nc1ccc(Cl)c(Cl)c1)c1cc(Cl)cc(-c2ccccc2)c1O,GHS category,4
CC(C)(C)CNc1nnc(-c2ccccc2)c2ccccc12,GHS category,5
C#CCN1C(=O)CCc2c(OCCCN3CCC(Cc4ccccc4)CC3)cccc21,GHS category,4
CN(C(=O)CC(=O)N(C)c1c(I)c(C(=O)NC(CO)C(O)CO)c(I)c(C(=O)NC(CO)C(O)CO)c1I)c1c(I)c(C(=O)NC(CO)C(O)CO)c(I)c(C(=O)NC(CO)C(O)CO)c1I (configuration not stated),GHS category,5
Nc1c(I)c(C(=O)O)c(I)c(C(=O)NCC(O)CO)c1I (configuration not stated),GHS category,5
CCCCCCOC(=O)C(C)(C)C,GHS category,5
Nc1nc(N)nc(Nc2nc(N)nc(N)n2)n1,GHS category,5
CCCCC(=O)O[C@]1(C(=O)CO)[C@@H](C)C[C@H]2[C@@H]3CCC4=CC(=O)C=C[C@]4(C)[C@@]3(F)[C@@H](O)C[C@@]21C,GHS category,5
CC(=O)[C@H]1CC[C@H]2[C@@H]3C=CC4=CC(=O)CC[C@@]4(C)[C@@H]3CC[C@]12C,GHS category,5
O=C(Nc1ccc(Cl)cc1)c1cc2ccccc2cc1O,GHS category,5
Brc1c(Br)c(Br)c(-c2c(Br)c(Br)c(Br)c(Br)c2Br)c(Br)c1Br,GHS category,5
NC(=O)Oc1ccc(Br)cc1C(=O)Oc1ccccc1,GHS category,5
C=COCCCCCCCCCCCCCCCCCC,GHS category,5
O=C(CCl)Nc1nc2cc(Cl)ccc2o1,GHS category,4
CCCCC(=O)N(Cc1ccc(-c2ccccc2-c2nnn[nH]2)cc1)[C@@H](C(=O)O)C(C)C,GHS category,5
CCC(C#N)(CCN(CC=C(C)C)CC=C(C)C)c1cccc2ccccc12 (configuration not stated),GHS category,4
CCCCCCCC/C=C\CCCCCCCCCCCC(=O)O,GHS category,5
CCOC(=O)Cn1c(=O)sc2cccc(Cl)c21,GHS category,5
CCCCc1c(Cc2ccc(-c3ccccc3-c3nn[nH]n3)cc2)c(=O)nc2nc[nH]n12,GHS category,4
CC1COc2ccccc2N1C(=O)C(Cl)Cl (configuration not stated),GHS category,5
CCCCC(CC)COC(=O)CCCCCCCC(=O)OCC(CC)CCCC (configuration not stated),GHS category,5
Cc1cc(C(=O)NCCc2ccc(S(=O)(=O)NC(=O)NC3CCCCC3)cc2)no1,GHS category,5
CC1CCCO1 (configuration not stated),GHS category,4
COc1ccccc1N=Nc1c(O)ccc2ccccc12,GHS category,5
N#Cc1cccc(C2=C3C(=O)NC(c4cccc(C#N)c4)=C3C(=O)N2)c1,GHS category,5
C=CC(C)(CCC=C(C)C)OC (configuration not stated),GHS category,5
c1ccc2oc(C3(Cn4cncn4)OCCCO3)cc2c1,GHS category,4
COc1cc(C(=O)OCCCN2CCCN(CCCOC(=O)c3cc(OC)c(OC)c(OC)c3)CC2)cc(OC)c1OC,GHS category,5
O=C(O)c1cc2ccccc2c(N=Nc2cc(Cl)ccc2Cl)c1O,GHS category,5
COc1ccc(C(=O)C2CC2)cc1,GHS category,4
OC1(c2ccc(Cl)c(Cl)c2)c2ccccc2C2=NCCCN21 (configuration not stated),GHS category,4
Cc1cc(C(C)(CC(=O)OCCOC(=O)CC(C)(c2ccc(O)c(C(C)(C)C)c2)c2ccc(O)c(C(C)(C)C)c2)c2ccc(O)c(C(C)(C)C)c2)cc(C(C)(C)C)c1O (configuration not stated),GHS category,5
Cc1cc(Cl)ccc1-n1c(C)nc2cccc(Cl)c2c1=O,GHS category,5
CCC(=O)C(C)CO (configuration not stated),GHS category,5
CC1CC(c2ccccc2)C(c2ccccc2)C(=O)O1 (configuration not stated),GHS category,4
Nc1ccc(N)c(S(=O)(=O)O)c1,GHS category,5
CCCCCCCCCCCCCCCC(=O)OC,GHS category,5
CCCOc1ccc(-c2ccc(C#N)cc2)cc1,GHS category,5
CCCCCCCCCCCCCCOC(=O)Cl,GHS category,5
CC(C)N1C2CCC1CC(=O)C2,GHS category,3
Nc1ccc(C2(c3ccc(N)c(Cl)c3)c3ccccc3-c3ccccc32)cc1Cl,GHS category,5
CCC(C)(C)OC(=O)N[C@@H](Cc1c[nH]c2ccccc12)C(=O)N[C@@H](CCSC)C(=O)N[C@@H](CC(=O)O)C(=O)N[C@@H](Cc1ccccc1)C(N)=O,GHS category,5
CCOC(=O)C(=O)Nc1cc(OCCOC)ncn1,GHS category,4
CCCCCCCCCCN(C)CCCCCCCCCC,GHS category,4
CC(C)CCCCCCCOC(=O)CCCCCCCC(=O)OCCCCCCCC(C)C,GHS category,5
COC[C@@H]1CO[C@@](Cn2ccnc2)(c2cc3cc(Cl)cc(Cl)c3o2)O1,GHS category,4
CCC[Si](OCC)(OCC)OCC,GHS category,5
CN(C)CC(=O)O,GHS category,4
COc1ccc2c(c1)CCN(c1ccccc1)C2c1ccccc1F (configuration not stated),GHS category,4
CCCCCCCCCCCCCCCCCCCC,GHS category,5
COc1ccccc1N1CCN(/C(N)=N/c2ccc(Cl)c(Cl)c2)CC1,GHS category,4
Cc1c(C#N)sc(N)c1C#N,GHS category,4
CC1CCC(C(C)(C)O)CC1 (configuration not stated),GHS category,5
CCCCC(CC)CNc1ccc2ccccc2c1N=Nc1ccc(N=Nc2ccccc2C)cc1C (configuration not stated),GHS category,5
C=C1CC[C@H]2O[C@]2(C)CC[C@@H]2[C@@H]1CC2(C)C,GHS category,5
CCOC(=O)/C(Cl)=C/c1cc(N2C(=O)C3=C(CCCC3)C2=O)ccc1Cl,GHS category,5
O=[N+]([O-])c1ccc2nc[nH]c2c1,GHS category,4
C[C@]12COC(=O)C[C@@H]1CC[C@@H]1[C@@H]2CC[C@@]2(C)[C@H]1CC[C@]2(C)O,GHS category,5
CCOCCOC(=O)C(=O)Nc1nc(-c2ccccc2)cs1,GHS category,5
CC(C)CCCCCCCOP(=O)(Oc1ccccc1)Oc1ccccc1,GHS category,5
